Where “and” joins values, the source holds several entries; their conditions need not be identical. Identical values can stand only once. Like-named read-outs stand apart in the source and are kept apart here.
How the values were obtained:
[1] = biological target: CYP1A2 (Homo sapiens (Human), UniProt P05177); test: CYP450 inhibition in human liver microsomes: CYP1A2
[2] = system: HIV-1RF; test: Anti-HIV cytoprotection in CEM-SS cells infected with HIV-1RF (XTT); type: cell-based
Experimental: To evaluate whether conjugated protease inhibitors retain the ability to protect against HIV-1 infection, CEM-SS cells infected with the RF strain of HIV-1 were treated with test compounds for six days, and then cell viability was monitored using the tetrazolium dye XTT. […] A value for Therapeutic Index (TI) was calculated as TC50/EC50.

[3] = biological target: CYP2D6 (Homo sapiens (Human), UniProt P10635); test: CYP450 inhibition in human liver microsomes: CYP2D6
[4] = system: PBMCs; test: PBMC cytotoxicity (XTT); type: cell-based, human; settings: 7 days
Experimental: Mononuclear cells were isolated from fresh human peripheral blood cells by Ficoll-Hypaque density gradient by centrifugation at 600 g for 30 minutes. Banded peripheral blood mononuclear cells (PBMCs) were aspirated from the resulting interface and washed with phosphate buffered saline by low speed centrifugation. Cell viability was evaluated by Trypan Blue dye exclusion. […] Plates were incubated at 37° C., 5% CO2 for 7 days prior to cytotoxicity evaluation. XTT measurement for cytotoxicity.

[5] = system: human monocytes; test: Toxicity in human monocytes in the absence of viral infection
Experimental: (§1) Fresh human monocytes were infected with the BaL strain of HIV-1 in the presence of test compounds. After seven days in culture, HIV-1 replication was evaluated by measurement of HIV-1 viral capsid protein (p24) in the tissue culture supernatant (Table 7). […] A TI was calculated as described above using TC50 values derived from cell toxicity data in response to test compounds in the absence of viral infection.

[6] = system: HIV-1BaL; test: HIV-1 p24 levels after infection of fresh human monocyte/macrophages; type: cell-based
Experimental: Mononuclear cells were isolated from fresh human peripheral blood cells by Ficoll-Hypaque density gradient by centrifugation at 600 g for 30 minutes. Banded peripheral blood mononuclear cells (PBMCs) were aspirated from the resulting interface and washed with phosphate buffered saline by low speed centrifugation. […] Cells were allowed to attach for 2 to 12 h at 37° C., then washed with Dulbecco's phosphate buffered saline (DPBS). Monocyte-macrophage monolayer formation was induced by incubation in growth medium (RPMI 1640 medium supplemented with 10% fetal bovine serum, 2 mmol/L L-glutamine, 100 Units/mL penicllin and 10 μg/mL streptomycin) for 7 days. Residual PBMCs were removed by washing the cell monolayers with DPBS. After washing, test compound diluted in growth medium was added to cells. Immediately following test compound addition, HIV-1 virus was added to the cells at multiplicity of infection (MOI)=0.05-0.10. After 7 days in culture, HIV-1 replication was quantified by ELISA measurement of cell-free HIV-1 viral capsid protein (p24) in the tissue culture supernatant of treated monocyte-macrophage monolayers. ELISA to quantify p24 was performed according to manufacturer's instructions (Perkin Elmer, Waltham, Mass.). The quantity of free HIV-1 p24 antigen in the sample was determined by comparing its absorbance at 490 nm to that of control standards.
as §1

[7] = biological target: CYP3A4 (Homo sapiens (Human), UniProt P08684); test: CYP450 inhibition in human liver microsomes: CYP3A4;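 note: incubation at 37 °C started by adding 1 mM NADPH, with formation of the probe metabolite measured via LC-MS/MS or fluorescent detection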
[8] = system: cynomolgus monkey hepatocytes; test: Metabolic stability in cynomolgus monkey hepatocytes; type: in vitro ADME; settings: 0.1 uM
[9] = system: HIV-1 HT/92/599; test: HIV-1 reverse transcriptase activity after infection of fresh human PBMCs; type: cell-based
In short: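 PHA-P/IL-2-stimulated fresh human PBMCs infected with HIV-1; supernatant reverse transcriptase activity measured by tritiated TTP incorporation on poly rA/oligo dT, 90 min at 37° C. Toxicity from 7-day uninfected PBMC culture read by XTT; TI = TC50/EC50.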

[10] = Metabolic stability in human liver microsomes; settings: for CLint ± SEM / t1/2: 3 μM;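 for t1/2: microsomal protein 0.5 mg/mL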
In short: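 Substrate depletion: compounds at 3 μM final with pooled mixed-sex human liver microsomes (0.5 mg/mL) in 0.1 M phosphate pH 7.4 at 37 °C. Remaining parent quantified by LC-MS/MS.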

[11] = six days, XTT, read-out: CEM-SS/HIV-1RF EC50 ± SD
[12] = monocyte/macrophages, absence of viral infection
[13] = read-out: CYP3A4 IC50 Midazolam, probe substrate midazolam
[14] = read-out: CYP3A4 IC50 Testosterone, probe substrate testosterone
[15] = read-out: PBMC/HIV-1HT/92/599 EC50 ± SD, seven days, reverse transcriptase activity
[16] = seven days, p24, read-out: Monocyte/HIV-1BaL EC50
[17] = read-out: CYP1A2 IC50 Phenacetin, probe substrate phenacetin
[18] = read-out: CYP2D6 IC50 Dextromethorphan, probe substrate dextromethorphan

Chain of CYP2D6 (P10635 whole entry): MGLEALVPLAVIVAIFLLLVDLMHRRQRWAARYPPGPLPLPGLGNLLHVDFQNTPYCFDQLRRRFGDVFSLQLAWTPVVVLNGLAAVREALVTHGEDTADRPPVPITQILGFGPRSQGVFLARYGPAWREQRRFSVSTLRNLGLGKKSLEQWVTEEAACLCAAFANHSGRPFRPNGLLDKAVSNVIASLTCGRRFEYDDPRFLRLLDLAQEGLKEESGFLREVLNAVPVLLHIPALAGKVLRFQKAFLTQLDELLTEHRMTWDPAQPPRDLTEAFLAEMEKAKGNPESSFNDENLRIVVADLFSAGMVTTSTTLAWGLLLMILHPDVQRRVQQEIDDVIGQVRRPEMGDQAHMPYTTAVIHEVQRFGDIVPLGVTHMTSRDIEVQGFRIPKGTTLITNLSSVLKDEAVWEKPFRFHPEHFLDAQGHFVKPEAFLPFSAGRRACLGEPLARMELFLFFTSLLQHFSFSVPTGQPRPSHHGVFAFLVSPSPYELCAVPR
Chain of CYP1A2 (P05177 whole entry): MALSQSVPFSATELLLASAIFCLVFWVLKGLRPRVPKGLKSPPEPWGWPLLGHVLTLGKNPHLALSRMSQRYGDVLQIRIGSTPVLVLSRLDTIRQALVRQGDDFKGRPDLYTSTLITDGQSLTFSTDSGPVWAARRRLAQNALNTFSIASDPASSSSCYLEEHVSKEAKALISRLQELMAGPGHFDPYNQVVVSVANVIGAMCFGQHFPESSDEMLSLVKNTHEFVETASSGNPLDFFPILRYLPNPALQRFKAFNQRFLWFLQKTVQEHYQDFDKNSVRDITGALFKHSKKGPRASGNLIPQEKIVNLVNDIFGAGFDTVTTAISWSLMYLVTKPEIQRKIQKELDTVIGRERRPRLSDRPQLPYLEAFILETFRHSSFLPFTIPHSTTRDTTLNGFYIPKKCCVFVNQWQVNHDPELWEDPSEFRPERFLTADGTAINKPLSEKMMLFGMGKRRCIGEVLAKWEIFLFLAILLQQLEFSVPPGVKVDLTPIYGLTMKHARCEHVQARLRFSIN
Chain of CYP3A4 (P08684 whole entry): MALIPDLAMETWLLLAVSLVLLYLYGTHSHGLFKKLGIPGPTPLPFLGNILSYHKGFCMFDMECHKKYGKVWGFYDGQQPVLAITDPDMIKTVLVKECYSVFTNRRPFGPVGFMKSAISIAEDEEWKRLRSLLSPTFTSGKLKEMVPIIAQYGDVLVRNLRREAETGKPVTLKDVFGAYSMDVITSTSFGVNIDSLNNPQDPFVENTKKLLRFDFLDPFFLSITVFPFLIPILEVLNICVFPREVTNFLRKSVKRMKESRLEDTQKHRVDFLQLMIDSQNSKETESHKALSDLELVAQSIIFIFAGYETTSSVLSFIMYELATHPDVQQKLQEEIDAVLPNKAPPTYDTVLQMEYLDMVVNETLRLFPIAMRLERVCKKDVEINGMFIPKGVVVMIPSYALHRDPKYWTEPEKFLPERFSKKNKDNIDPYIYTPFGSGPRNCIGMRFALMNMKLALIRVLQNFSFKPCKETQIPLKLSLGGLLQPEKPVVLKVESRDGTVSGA

Row | Structure (SMILES) | EC50 [2, 11] | XTT (PBMC) TC50 [4] [nM] | TC50 [5, 12] [nM] | IC50 [7, 13] [nM] | IC50 [7, 14] [nM] | CLint ± SEM [8] [μL/min/10^6 cells] | t1/2 [8] [h] | EC50 [9, 15] | CLint ± SEM ([10]; human liver microsomes) [μL/min/mg protein] | t1/2 ([10]; human liver microsomes) [min] | EC50 [6, 16] [nM] | IC50 [1, 17] [nM] | TC50 [5] [nM] | IC50 [3, 18] [nM] | also measured
1 | COC(=O)N[C@H](C(=O)N[C@@H](Cc1ccccc1)[C@@H](O)CN(Cc1ccc(-c2ccccn2)cc1)NC(=O)[C@@H](NC(=O)OC)C(C)(C)C)C(C)(C)C [Atazanavir, reference compound] | 15 ± 14 nM | 109400 | – | – | – | – | – | – | – | – | – | – | – | – | IC50 [1]: 20600 nM; IC50 [3]: 14900 nM
2 | CC(C)CN(C[C@@H](O)[C@H](Cc1ccccc1)NC(=O)O[C@H]1CO[C@H]2OCC[C@H]21)S(=O)(=O)c1ccc(N)cc1 [Darunavir, reference compound] | – | 328400 | >200000 | – | – | – | – | – | – | – | – | – | – | – | EC50 ([2]; Human immunodeficiency virus 1, CEM-SS, 144 h, read-out: CEM-SS/HIV-1RF EC50 ± SD, six days, XTT): < 0.7 nM; EC50 ([2]; read-out: CEM-SS/HIV-1RF EC50 ± SD, six days, XTT): < 0.66 nM and 1 nM; EC50 ([6]; Human immunodeficiency virus 1, Monocyte, 168 h, read-out: Monocyte/HIV-1BaL EC50, seven days, p24): < 20 nM
3 | COCCOCCOCCOc1ccc(C[C@H](NC(=O)O[C@H]2CO[C@H]3OCC[C@H]32)C(O)CN(CC(C)C)S(=O)(=O)c2ccc(N)cc2)cc1 (stereo partly shown) [mPEG3-O-Darunavir] | – | >400000 | >200000 | 2590 | 4900 | 8.53 ± 0.563 | 2.72 | 27 ± 6 nM | 77.4 ± 9.14 | 17.9 | 1030 ± 1450 | – | – | – | –
4 | COCCOCCOCCOCCOCCNc1ccc(S(=O)(=O)N(CC(C)C)CC(O)[C@H](Cc2ccccc2)NC(=O)O[C@H]2CO[C@H]3OCC[C@H]32)cc1 (stereo partly shown) [mPEG5-N-Darunavir] | – | 223500 | >200000 | 2700 | 4000 | 26.5 ± 0.942 | 0.872 | < 20 nM and 33 nM | 440 ± 19.0 | 3.15 | 303 ± 366 | – | – | – | –
5 | COCCOCCOCCOCCOCCOc1ccc(C[C@H](NC(=O)O[C@H]2CO[C@H]3OCC[C@H]32)C(O)CN(CC(C)C)S(=O)(=O)c2ccc(N)cc2)cc1 (stereo partly shown) [mPEG5-O-Darunavir] | – | >400000 | >200000 | > 2500 | > 25000 | – | – | 90 ± 8 nM | 198 ± 22.1 | 7.00 | 263 ± 155 | – | – | – | –
6 | COCCOCCOCCOCCOCCOCCOCCNc1ccc(S(=O)(=O)N(CC(C)C)CC(O)[C@H](Cc2ccccc2)NC(=O)O[C@H]2CO[C@H]3OCC[C@H]32)cc1 (stereo partly shown) [mPEG7-N-Darunavir] | 14 nM and 11 nM | 381300 | >200000 | 5400 | 12900 | 0.286 ± 0.504 | 80.83 | 73 ± 12 nM | 356 ± 7.74 | 3.89 | 577 ± 423 | – | – | – | –
7 | COCCOC(=O)NC(C(=O)NC(Cc1ccccc1)C(O)CN(Cc1ccc(-c2ccccn2)cc1)NC(=O)C(NC(=O)OC)C(C)(C)C)C(C)(C)C (stereo not shown) [mono-mPEG1-Atazanavir] | 2 ± 0.6 nM | – | – | 2560 | 10400 | 70.3 ± 0.0027 | 0.328 | < 20 nM | 181 ± 0.640 | 7.65 | < 20 | > 25000 | 159100 | 18300 | –
8 | COCCOCCOCCOC(=O)NC(C(=O)NC(Cc1ccccc1)C(O)CN(Cc1ccc(-c2ccccn2)cc1)NC(=O)C(NC(=O)OC)C(C)(C)C)C(C)(C)C (stereo not shown) [mono-mPEG3-Atazanavir, {1-[N′-[2-Hydroxy-3-(2-{2-[2-(2-methoxy-ethoxy)-ethoxy]-ethoxycarbonylamino}-3,3-dimethyl-butyrylamino)-4-phenyl-butyl]-N′-(4-pyridin-2-yl-benzyl)-hydrazinocarbonyl]-2,2-dimethyl-propyl}-carbamic Acid Methyl Ester] | 3 ± 2 nM | 338900 | – | – | – | 21.0 ± 0.00203 | 1.1 | 30 nM and 20.4 nM and 20 nM and 18.7 nM | 172 ± 1.39 | 8.04 | – | – | – | – | IC50 [1]: > 25000 nM; IC50 ([7]; CYP3A4 IC50 Midazolam, probe substrate midazolam): 2850 nM; IC50 ([7]; CYP3A4 IC50 Testosterone, probe substrate testosterone): 12800 nM; EC50 ([9]; Human immunodeficiency virus 1, PBMC, 168 h, read-out: PBMC/HIV-1HT/92/599 EC50 ± SD, seven days, reverse transcriptase activity): < 20 nM; IC50 [3]: > 25000 nM; microsomal CLint at 3 μM ([10]; both, human, pooled human liver microsomes, pH 7.4, CLint ± SEM, human liver microsomes): 248 ± 31.7 µL/min/mg; half-life at 3 μM ([10]; both, human, pooled human liver microsomes, pH 7.4, t1/2, human liver microsomes): 5.58 min
9 | COCCOCCOCCOCCOCCOC(=O)NC(C(=O)NC(Cc1ccccc1)C(O)CN(Cc1ccc(-c2ccccn2)cc1)NC(=O)C(NC(=O)OC)C(C)(C)C)C(C)(C)C (stereo not shown) [mono-mPEG5-Atazanavir] | 1 ± 0.6 nM | – | – | 9350 | > 25000 | 13.8 ± 0.00163 | 1.67 | – | 108 ± 9.75 | 12.9 | 56.6 ± 12.2 | > 25000 | 120800 | 22200 | –
10 | COCCOCCOCCOCCOCCOCCOC(=O)NC(C(=O)NC(Cc1ccccc1)C(O)CN(Cc1ccc(-c2ccccn2)cc1)NC(=O)C(NC(=O)OC)C(C)(C)C)C(C)(C)C (stereo not shown) [mono-mPEG6-Atazanavir] | – | – | – | 16700 | > 25000 | 0.245 ± 0.000245 | 94.33 | 108 nM and 117 nM and 60 nM | 112 ± 1.10 | 12.3 | 43.3 ± 20.4 | > 25000 | 130200 | > 25000 | –
11 | COCCOCCOCCOCCOCCOCCOCCOC(=O)NC(C(=O)NC(Cc1ccccc1)C(O)CN(Cc1ccc(-c2ccccn2)cc1)NC(=O)C(NC(=O)OC)C(C)(C)C)C(C)(C)C (stereo not shown) [mono-mPEG7-Atazanavir] | 30 ± 20 nM | – | – | 20100 | > 25000 | – | – | 163 ± 30 nM | 71.0 ± 5.63 | 19.5 | 137 ± 60.1 | > 25000 | 132200 | > 25000 | –

Source: patent US10806794B2, “Protease inhibitors having enhanced features” (priority 2008, dated 2020)
